Experimental data from ChEMBL document CHEMBL1201862, “PubChem BioAssay data set” (2004).
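96-well plates; 48 h exposure; 5 concentrations. Endpoints by linear interpolation between flanking doses. Not reached: highest tested concentration assigned. Abbreviation: GI50, concentration required for 50% inhibition of growth.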 Active and inactive are the calls of the source. No stated cut-off is given here; in the data, active = GI50 up to about 1.1 µM and inactive = higher.

Tests used:
Assay in all cases: inhibition of tumour cell growth, NCI panel, 48 h
[1] = tested on: 786-0
[2] = tested on: A549
[3] = tested on: ACHN
[4] = tested on: CAKI-1
[5] = tested on: CCRF-CEM
[6] = tested on: COLO 205
[7] = tested on: DLD-1
[8] = tested on: DMS-114
[9] = tested on: DMS-273
[10] = tested on: EKVX
[11] = tested on: HCC 2998
[12] = tested on: HCT-116
[13] = tested on: HCT-15
[14] = tested on: HL-60
[15] = tested on: HOP-18
[16] = tested on: HOP-62
[17] = tested on: HOP-92
[18] = tested on: HT-29
[19] = tested on: IGROV-1
[20] = tested on: K562
[21] = tested on: KM-20L2
[22] = tested on: KM12
[23] = tested on: LOX IMVI
[24] = tested on: LXFL 529
[25] = tested on: M14
[26] = tested on: M19-MEL
[27] = tested on: MOLT-4
[28] = tested on: Malme-3M
[29] = tested on: NCI-H226
[30] = tested on: NCI-H23
[31] = tested on: NCI-H460
[32] = tested on: NCI-H522
[33] = tested on: OVCAR-3
[34] = tested on: OVCAR-5
[35] = tested on: OVCAR-8
[36] = tested on: RPMI-8226
[37] = tested on: RXF 393
[38] = tested on: SF-268
[39] = tested on: SF-295
[40] = tested on: SF-539
[41] = tested on: SK-MEL-28
[42] = tested on: SK-MEL-2
[43] = tested on: SK-MEL-5
[44] = tested on: SK-OV-3
[45] = tested on: SN12C
[46] = tested on: SNB-19
[47] = tested on: SNB-75
[48] = tested on: SNB-78
[49] = tested on: SR
[50] = tested on: SW-620
[51] = tested on: TK-10
[52] = tested on: U-251
[53] = tested on: UACC-257
[54] = tested on: UACC-62
[55] = tested on: UO-31
[56] = tested on: XF498
[57] = tested on: A498
[58] = tested on: OVCAR-4

## CN(CCO)c1nc(N)cc(=O)[nH]1
[1]
  GI50: > 100 µM (inactive)
[2]
  GI50: > 100 µM (inactive)
[3]
  GI50: > 100 µM (inactive)
[4]
  GI50: > 100 µM (inactive)
[5]
  GI50: > 100 µM (inactive)
[6]
  GI50: > 100 µM (inactive)
[7]
  GI50: > 100 µM (inactive)
[8]
  GI50: > 100 µM (inactive)
[9]
  GI50: > 100 µM (inactive)
[10]
  GI50: > 100 µM (inactive)
[11]
  GI50: > 100 µM (inactive)
[12]
  GI50: > 100 µM (inactive)
[13]
  GI50: > 100 µM
[14]
  GI50: > 100 µM (inactive)
[15]
  GI50: > 100 µM (inactive)
[16]
  GI50: > 100 µM (inactive)
[17]
  GI50: > 100 µM (inactive)
[18]
  GI50: > 100 µM (inactive)
[19]
  GI50: > 100 µM (inactive)
[20]
  GI50: > 100 µM (inactive)
[21]
  GI50: > 100 µM (inactive)
[22]
  GI50: > 100 µM (inactive)
[23]
  GI50: > 100 µM (inactive)
[24]
  GI50: > 100 µM (inactive)
[25]
  GI50: > 100 µM (inactive)
[26]
  GI50: > 100 µM (inactive)
[27]
  GI50: > 100 µM (inactive)
[28]
  GI50: > 100 µM (inactive)
[29]
  GI50: > 100 µM (inactive)
[30]
  GI50: > 100 µM (inactive)
[31]
  GI50: > 100 µM (inactive)
[32]
  GI50: > 100 µM (inactive)
[33]
  GI50: > 100 µM (inactive)
[34]
  GI50: > 100 µM (inactive)
[35]
  GI50: > 100 µM (inactive)
[36]
  GI50: > 100 µM (inactive)
[37]
  GI50: > 100 µM (inactive)
[38]
  GI50: > 100 µM (inactive)
[39]
  GI50: > 100 µM (inactive)
[40]
  GI50: > 100 µM (inactive)
[41]
  GI50: > 100 µM (inactive)
[42]
  GI50: > 100 µM (inactive)
[43]
  GI50: > 100 µM (inactive)
[44]
  GI50: > 100 µM (inactive)
[45]
  GI50: > 100 µM (inactive)
[46]
  GI50: > 100 µM (inactive)
[47]
  GI50: 38.7 µM (inactive)
[48]
  GI50: > 100 µM (inactive)
[49]
  GI50: > 100 µM (inactive)
[50]
  GI50: > 100 µM (inactive)
[51]
  GI50: > 100 µM (inactive)
[52]
  GI50: > 100 µM (inactive)
[53]
  GI50: > 100 µM (inactive)
[54]
  GI50: > 100 µM (inactive)
[55]
  GI50: > 100 µM (inactive)
[56]
  GI50: > 100 µM (inactive)

## CN1CCS(=O)(=O)NC(Cc2ccccc2)C(=O)N2CCCC2C1=O (centres undefined)
[1]
  GI50: > 100 µM (inactive)
[57]
  GI50: > 100 µM (inactive)
[2]
  GI50: > 100 µM (inactive)
[3]
  GI50: > 100 µM (inactive)
[4]
  GI50: > 100 µM (inactive)
[5]
  GI50: > 100 µM (inactive)
[6]
  GI50: > 100 µM (inactive)
[7]
  GI50: > 100 µM (inactive)
[8]
  GI50: > 100 µM (inactive)
[9]
  GI50: > 100 µM (inactive)
[10]
  GI50: > 100 µM (inactive)
[11]
  GI50: > 100 µM (inactive)
[12]
  GI50: > 100 µM (inactive)
[13]
  GI50: > 100 µM
[14]
  GI50: > 100 µM (inactive)
[15]
  GI50: > 100 µM (inactive)
[16]
  GI50: > 100 µM (inactive)
[18]
  GI50: > 100 µM (inactive)
[19]
  GI50: > 100 µM (inactive)
[20]
  GI50: > 100 µM (inactive)
[21]
  GI50: > 100 µM (inactive)
[22]
  GI50: > 100 µM (inactive)
[23]
  GI50: > 100 µM (inactive)
[24]
  GI50: > 100 µM (inactive)
[26]
  GI50: > 100 µM (inactive)
[27]
  GI50: > 100 µM (inactive)
[28]
  GI50: > 100 µM (inactive)
[29]
  GI50: > 100 µM (inactive)
[30]
  GI50: > 100 µM (inactive)
[32]
  GI50: > 100 µM (inactive)
[33]
  GI50: > 100 µM (inactive)
[58]
  GI50: > 100 µM (inactive)
[34]
  GI50: > 100 µM (inactive)
[35]
  GI50: > 100 µM (inactive)
[36]
  GI50: > 100 µM (inactive)
[38]
  GI50: > 100 µM (inactive)
[39]
  GI50: > 100 µM (inactive)
[40]
  GI50: > 100 µM (inactive)
[41]
  GI50: > 100 µM (inactive)
[42]
  GI50: > 100 µM (inactive)
[43]
  GI50: > 100 µM (inactive)
[44]
  GI50: > 100 µM (inactive)
[45]
  GI50: > 100 µM (inactive)
[46]
  GI50: > 100 µM (inactive)
[47]
  GI50: > 100 µM (inactive)
[48]
  GI50: > 100 µM (inactive)
[50]
  GI50: > 100 µM (inactive)
[51]
  GI50: > 100 µM (inactive)
[52]
  GI50: > 100 µM (inactive)
[53]
  GI50: > 100 µM (inactive)
[54]
  GI50: > 100 µM (inactive)
[55]
  GI50: > 100 µM (inactive)
[56]
  GI50: > 100 µM (inactive)
